This passage reports EC50 and AC50 results from US20240316038A1, “APOL1 INHIBITORS AND METHODS OF USE” (Maze Therapeutics, Inc., priority 2021, published 2024).

A value given as a limit tells only on which side of the number the result lay.

Experiment [1] concerns the target T1, APOL1 G2 (Homo sapiens, UniProt O14791, DEL388-389).
T1 construct: expressed in transfected cells; host or cells: HEK293 T-REx clonal lines: HEK T-REx/GCaMP6f/APOL1 G2 K6.3 in A1, HEK293/T-REx APOL1 G2/clone #2 in A2
T1 sequence (O14791 with tags, fused parts or gaps DEL388-389): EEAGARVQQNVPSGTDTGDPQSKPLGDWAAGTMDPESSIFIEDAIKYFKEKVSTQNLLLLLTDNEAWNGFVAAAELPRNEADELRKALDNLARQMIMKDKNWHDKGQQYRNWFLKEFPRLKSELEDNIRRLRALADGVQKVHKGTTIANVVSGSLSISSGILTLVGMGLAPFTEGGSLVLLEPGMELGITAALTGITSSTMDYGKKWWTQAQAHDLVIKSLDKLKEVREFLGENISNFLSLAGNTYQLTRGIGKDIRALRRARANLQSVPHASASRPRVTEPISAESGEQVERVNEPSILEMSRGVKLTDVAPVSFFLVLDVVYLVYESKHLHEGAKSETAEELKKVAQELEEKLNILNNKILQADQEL
Description: Rescue of HEK293 cell death caused by overexpression of APOL1 (CellTiter-Glo luminescence), HEK293/T-REx APOL1 G2/clone #2. The settings on record: reversal of cell death caused by overexpression of APOL1; geometric mean of at least 2 assay runs, † = single assay run (technical duplicate). It is filed as cell-based. The method, boiled down:
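HEK293/T-REx APOL1 G2 clone #2 cells, 5,000/well, induced with 6 ng/mL doxycycline and exposed to compound (8-point, 3-fold dilutions, 0.5% DMSO) for 17 h at 37 °C. Viability by CellTiter-Glo luminescence; EC50 for reversal of APOL1-induced death from a four-parameter logistic fit, geometric mean of ≥2 runs.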
(In ATP-based viability assays light output follows the ATP content of the culture.)

The target of experiment [2] is T1, APOL1 G2. The experiment is described as follows: APOL1 calcium transport inhibition assay (GCaMP6f calcium influx, FLIPR) in HEK T-REx/GCaMP6f/APOL1 G2 K6.3 cells. It is filed as cell-based. The settings on record: inhibition of APOL1-mediated calcium influx; geometric mean of at least 2 assay runs, † = single assay run (technical duplicate). A digest of the protocol:
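HEK293 cells stably expressing GCaMP6f, APOL1 G2 induced 6 h with doxycycline (20 ng/mL added), then washed into Ca2+-free Tyrode's buffer pH 7.4. Compounds (8-point dose response) preincubated 10 min at room temperature, then Ca2+ injected to 5 mM final and influx read on FLIPR. AC50 reported as geometric mean of runs.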

On to `CN(c1ccc(OC[C@@H](O)CN2CCC(c3cccc(Cl)c3)C2)cc1)S(C)(=O)=O` (single isomer, unassigned) [Compound 75, N-(4-((S)-3-((S) or (R)-3-(3-chlorophenyl)pyrro-lidin-1-yl)-2-hydroxypropoxy)phe-nyl)-N-methylmethanesulfon-amide], for which the EC50 at APOL1 G2 [1] was determined as 1460 nM. Further, the AC50 on APOL1 G2 [2] was found to be 558 nM.

In the case of `CN(c1ccc(OC[C@@H](O)CN2CCC(c3cccc(Cl)c3)C2)cc1)S(C)(=O)=O` (single isomer, unassigned) [Compound 76, N-(4-((S)-3-((R) or (S)-3-(3-chlorophenyl)pyrro-lidin-1-yl)-2-hydroxypropoxy)phe-nyl)-N-methylmethanesulfon-amide], the EC50 on APOL1 G2 [1] is greater than 6280 nM. For the same molecule, on APOL1 G2 [2], the AC50 was 2830 nM.

For `CN(c1ccc(OC[C@H](O)CN2CCC(c3cccc(Cl)c3)C2)cc1)S(C)(=O)=O` (single isomer, unassigned) [Compound 78, N-(4-((R)-3-((S) or (R)-3-(3-chlorophenyl)pyrro-lidin-1-yl)-2-hydroxypropoxy)phe-nyl)-N-methylmethanesulfon-amide], the EC50 at APOL1 G2 [1] was greater than 30000 nM. In addition, the concentration at half-maximal activity (AC50) at APOL1 G2 [2] came to 7010 nM.

In the case of `CN(c1ccc(OC[C@H](O)CN2CCC(c3cccc(Cl)c3)C2)cc1)S(C)(=O)=O` (single isomer, unassigned) [Compound 79, N-(4-((R)-3-((R) or (S)-3-(3-chlorophenyl)pyrro-lidin-1-yl)-2-hydroxypropoxy)phe-nyl)-N-methylmethanesulfon-amide], the EC50 at APOL1 G2 [1] was greater than 13700 nM. Further, the AC50 on APOL1 G2 [2] worked out at 1290 nM.

Consider `CN(c1ccc(OC[C@@H](O)CN2CCOC(c3cccc(Cl)c3)C2)cc1)S(C)(=O)=O` (single isomer, unassigned) [Compound 81, N-(4-((S)-3-((S) or (R)-2-(3-chlorophenyl)morpho-lino)-2-hydroxypropoxy)phe-nyl)-N-methylmethanesulfon-amide], for which the EC50 at APOL1 G2 [1] is greater than 30000 nM. In addition, on APOL1 G2 [2], the AC50 was greater than 25000 nM.

With `CN(c1ccc(OC[C@@H](O)CN2CCOC(c3cccc(Cl)c3)C2)cc1)S(C)(=O)=O` (single isomer, unassigned) [Compound 82, N-(4-((S)-3-((R) or (S)-2-(3-chlorophenyl)morpho-lino)-2-hydroxypropoxy)phe-nyl)-N-methylmethanesulfon-amide], on APOL1 G2 [1], the EC50 is greater than 24300 nM. Also, at APOL1 G2 [2], the AC50 was determined as 4350 nM.

`CN(c1ccc(OC[C@H](O)CN2CCOC(c3cccc(Cl)c3)C2)cc1)S(C)(=O)=O` (single isomer, unassigned) [Compound 84, N-(4-((R)-3-((R) or (S)-2-(3-chlorophenyl)morpho-lino)-2-hydroxypropoxy)phe-nyl)-N-methylmethanesulfon-amide]: the EC50 at APOL1 G2 [1] is greater than 30000 nM. For the same molecule, on APOL1 G2 [2], the AC50 was greater than 25000 nM.

Consider `CN(c1ccc(OC[C@H](O)CN2CCOC(c3cccc(Cl)c3)C2)cc1)S(C)(=O)=O` (single isomer, unassigned) [Compound 85, N-(4-((R)-3-((S) or (R)-2-(3-chlorophenyl)morpho-lino)-2-hydroxypropoxy)phe-nyl)-N-methylmethanesulfon-amide], for which, on APOL1 G2 [1], the EC50 was greater than 18000 nM. Further, at APOL1 G2 [2], the AC50 was 8480 nM.

For the molecule `CC(Cc1cccc(Cl)c1)NC[C@@H](O)COc1ccc(N(C)S(C)(=O)=O)cc1` (single isomer, unassigned) [Compound 88, N-(4-((R)-3-(((S) or (R)-1-(3-chlorophenyl)propan-2-yl)amino)-2-hydroxypropoxy)phe-nyl)-N-methylmethanesulfon-amide], the EC50 on APOL1 G2 [1] is 698 nM. Moreover, the AC50 at APOL1 G2 [2] is 338 nM.

On to `CC(Cc1cccc(Cl)c1)NC[C@@H](O)COc1ccc(N(C)S(C)(=O)=O)cc1` (single isomer, unassigned) [Compound 89, N-(4-((R)-3-(((R) or (S)-1-(3-chlorophenyl)propan-2-yl)amino)-2-hydroxypropoxy)phe-nyl)-N-methylmethanesulfon-amide], for which the EC50 on APOL1 G2 [1] stood at 2020 nM. For the same molecule, the AC50 on APOL1 G2 [2] was 449 nM.

As to `CC(Cc1cccc(Cl)c1)NC[C@H](O)COc1ccc(N(C)S(C)(=O)=O)cc1` (single isomer, unassigned) [Compound 95, N-(4-((S)-3-(((S) or (R)-1-(3-chlorophenyl)propan-2-yl)amino)-2-hydroxypropoxy)phe-nyl)-N-methylmethanesulfon-amide], the EC50 at APOL1 G2 [1] turned out to be 6900 nM. In addition, the AC50 at APOL1 G2 [2] was determined as 1540 nM.

As to `CC(Cc1cccc(Cl)c1)NC[C@H](O)COc1ccc(N(C)S(C)(=O)=O)cc1` (single isomer, unassigned) [Compound 96, N-(4-((S)-3-(((R) or (S)-1-(3-chlorophenyl)propan-2-yl)amino)-2-hydroxypropoxy)phe-nyl)-N-methylmethanesulfon-amide], the EC50 on APOL1 G2 [1] was greater than 30000 nM. Further, the AC50 on APOL1 G2 [2] turned out to be 3770 nM.

Take `CN(c1ccc(OCC(C)(O)CNCCc2cccc(Cl)c2)cc1)S(C)(=O)=O` (single isomer, unassigned) [Compound 103, (R) or (S)-N-(4-(3-((3-chlorophenethyl)a-mino)-2-hydroxy-2-methylpropxy)phe-nyl)-N-methylmethanesulfon-amide]: on APOL1 G2 [1], the EC50 was greater than 30000 nM. The AC50 on APOL1 G2 [2] worked out at 10900 nM.

As for `CN(c1ccc(OCC(C)(O)CNCCc2cccc(Cl)c2)cc1)S(C)(=O)=O` (single isomer, unassigned) [Compound 104, (S) or (R)-N-(4-(3-((3-chlorophenethyl)a-mino)-2-hydroxy-2-methylpropoxy)phe-nyl)-N-methylmethanesulfon-amide], the EC50 on APOL1 G2 [1] amounted to 1860 nM. Also, the AC50 on APOL1 G2 [2] is less than 382 nM.

As to `CN(c1ccc(NCC(O)CNCCc2cccc(Cl)c2)cc1)S(C)(=O)=O` (single isomer, unassigned) [Compound 106, (R) or (S)-N-(4-((3-((3-chlorophenethyl)a-mino)-2-hydroxypropyl)ami-no)phenyl)-N-methylmethanesulfon-amide], on APOL1 G2 [1], the EC50 stood at 6240 nM. Also, the AC50 on APOL1 G2 [2] turned out to be 2790 nM.

`COCCS(=O)(=O)c1ccc(OC[C@H]2CN(CCc3cccc(Cl)c3)C[C@@H]2C)cc1` (single isomer, unassigned) [Compound 110, (3R,4R or 3S,4S)-1-[2-(3-chlorophenyl)ethyl]-3-{[4-(2-methoxyethane-sulfonyl)phenoxy]methyl}-4-methylpyrrolidine]: on APOL1 G2 [1], the EC50 amounted to 135 nM. Besides, the AC50 at APOL1 G2 [2] turned out to be 91.4 nM.

As for `COCCS(=O)(=O)c1ccc(OC[C@@H]2CN(CCc3cccc(Cl)c3)C[C@H]2C)cc1` (single isomer, unassigned) [Compound 111, (3S,4S or 3R,4R)-1-[2-(3-chlorophenyl)ethyl]-3-{[4-(2-methoxyethane-sulfonyl)phenoxy]methyl}-4-methylpyrrolidine], the EC50 on APOL1 G2 [1] was 1880 nM. Also, the AC50 at APOL1 G2 [2] came out at 494 nM.

Consider `C[C@H]1CN(CCc2cccc(Cl)c2)C[C@@H]1COc1ccc(S(=O)(=O)CCO)cc1` (single isomer, unassigned) [Compound 112, 2-(4-{[(3R,4R or 3S,4S)-1-[2-(3-chlorophenyl)ethyl]-4-methylpyrrolidin-3-yl]methoxy}benzene-sulfonyl)ethan-1-ol], for which the EC50 at APOL1 G2 [1] was 29.8 nM. In addition, the AC50 at APOL1 G2 [2] was greater than 159 nM.

With `C[C@@H]1CN(CCc2cccc(Cl)c2)C[C@H]1COc1ccc(S(=O)(=O)CCO)cc1` (single isomer, unassigned) [Compound 113, 2-(4-{[(35,4S or 3R,4R)-1-[2-(3-chlorophenyl)ethyl]-4-methylpyrrolidin-3-yl]methoxy}benzene-sulfonyl)ethan-1-ol], the EC50 at APOL1 G2 [1] came out at 1070 nM. Moreover, the AC50 at APOL1 G2 [2] turned out to be 907 nM.

With `C[C@@H]1C[C@H](COc2ccc(S(C)(=O)=O)cc2)CN1CC(O)c1cc(Cl)cc(C#N)c1` (single isomer, unassigned) [Compound 114, 3-chloro-5-[(1S or 1R)-1-hydroxy-2-[(2R,4S)-4-[(4-methanesulfonylphenoxy)methyl]-2-methylpyrrolidin-1-yl]ethyl] benzonitrile], on APOL1 G2 [1], the EC50 amounted to 439 nM. The AC50 on APOL1 G2 [2] was determined as 709 nM.

Take `C[C@@H]1C[C@H](COc2ccc(S(C)(=O)=O)cc2)CN1CC(O)c1cc(Cl)cc(C#N)c1` (single isomer, unassigned) [Compound 115, 3-chloro-5-[(1R or 1S)-1-hydroxy-2-[(2R,4S)-4-[(4-methanesulfonylphenoxy)methyl]-2-methylpyrrolidin-1-yl]ethyl] benzonitrile]: the EC50 at APOL1 G2 [1] came out at 44.7 nM. The AC50 on APOL1 G2 [2] came out at 756 nM.

For `C[C@@H]1C[C@H](COc2ccc(S(C)(=O)=O)cc2)CN1CC(O)c1cccc(C#N)c1` (single isomer, unassigned) [Compound 116, 3-[(1R or 1S)-1-hydroxy-2-[(2R,4S)-4-[(4-methanesulfonylphenoxy)methyl]-2-methylpyrrolidin-1-yl]ethyl] benzonitrile], on APOL1 G2 [1], the EC50 amounted to 76 nM. In addition, the AC50 at APOL1 G2 [2] was 374 nM.

As a reminder, the EC50 is the concentration needed to bring the measured effect to its halfway point. Usually AC50 stands for the concentration at which the activity in the assay is half-maximal.
